How the values were obtained:
[1] = target: T1, PBP1a from Acinetobacter baumannii (ATCC 19606) (Acinetobacter baumannii, UniProt A0ABX6CK30); assay: Bocillin-FL fluorescence polarization competition binding, A. baumannii PBP1a; settings: fluorescence polarization competition binding assay using Bocillin-FL; read-out: A. baumannii PBP1a Potency
T1 sequence (A0ABX6CK30 1-851): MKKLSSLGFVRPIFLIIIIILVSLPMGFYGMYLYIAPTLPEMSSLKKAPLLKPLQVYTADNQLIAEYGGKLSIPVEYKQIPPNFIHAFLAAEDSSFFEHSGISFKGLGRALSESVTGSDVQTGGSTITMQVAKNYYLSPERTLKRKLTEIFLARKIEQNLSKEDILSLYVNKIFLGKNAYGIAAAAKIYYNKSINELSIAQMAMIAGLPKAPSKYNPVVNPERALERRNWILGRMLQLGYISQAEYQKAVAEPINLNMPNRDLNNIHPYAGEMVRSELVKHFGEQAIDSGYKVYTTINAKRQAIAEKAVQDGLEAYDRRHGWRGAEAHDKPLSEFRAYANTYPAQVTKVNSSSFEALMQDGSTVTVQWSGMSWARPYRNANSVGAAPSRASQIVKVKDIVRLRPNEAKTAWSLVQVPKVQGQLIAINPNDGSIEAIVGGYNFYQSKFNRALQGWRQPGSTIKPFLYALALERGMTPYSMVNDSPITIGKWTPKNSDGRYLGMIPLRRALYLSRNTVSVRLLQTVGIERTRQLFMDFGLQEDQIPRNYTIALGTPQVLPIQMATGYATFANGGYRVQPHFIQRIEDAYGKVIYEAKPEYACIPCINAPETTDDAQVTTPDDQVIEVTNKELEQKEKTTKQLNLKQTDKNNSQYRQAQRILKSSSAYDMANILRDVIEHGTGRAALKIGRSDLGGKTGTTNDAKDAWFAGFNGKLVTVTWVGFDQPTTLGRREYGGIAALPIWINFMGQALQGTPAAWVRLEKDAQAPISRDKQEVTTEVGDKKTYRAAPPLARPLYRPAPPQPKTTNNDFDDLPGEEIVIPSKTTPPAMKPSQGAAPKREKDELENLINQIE
Outline: (§1)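 Purified PBP was preincubated with inhibitor (E. coli PBP3 1.5 μM, 30 min; P. aeruginosa PBP3 0.75 μM, A. baumannii PBP3 0.2 μM and PBP1a 1 μM, 15 min), then Bocillin-FL (0.1 μM; 0.05 μM for PBP1a) added and FP read up to 60 min. EC50 = 50% loss of bound probe.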

[2] = target: T2, PBP3 from Acinetobacter baumannii (ATCC 19606) (Acinetobacter baumannii, UniProt A0ABX6CK25); assay: Bocillin-FL fluorescence polarization competition binding, A. baumannii PBP3; settings: fluorescence polarization competition binding assay using Bocillin-FL; read-out: A. baumannii PBP3 Potency
T2 sequence (A0ABX6CK25 64-610): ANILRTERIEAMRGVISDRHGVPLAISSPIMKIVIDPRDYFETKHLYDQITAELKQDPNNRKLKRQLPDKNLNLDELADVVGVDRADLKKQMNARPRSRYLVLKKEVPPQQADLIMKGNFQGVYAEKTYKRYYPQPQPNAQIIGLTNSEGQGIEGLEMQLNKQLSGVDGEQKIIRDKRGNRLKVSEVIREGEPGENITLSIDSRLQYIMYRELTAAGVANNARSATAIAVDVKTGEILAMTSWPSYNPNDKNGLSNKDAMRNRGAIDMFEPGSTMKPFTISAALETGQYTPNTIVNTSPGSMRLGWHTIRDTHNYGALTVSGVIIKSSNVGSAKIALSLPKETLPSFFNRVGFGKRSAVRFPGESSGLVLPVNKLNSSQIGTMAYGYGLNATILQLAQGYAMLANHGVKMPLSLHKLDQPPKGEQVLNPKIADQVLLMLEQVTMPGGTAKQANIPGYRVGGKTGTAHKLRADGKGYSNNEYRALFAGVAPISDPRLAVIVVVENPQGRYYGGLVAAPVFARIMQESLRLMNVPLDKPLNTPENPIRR
Outline: as §1

A. baumannii ATCC 17978 = assay: microbe, parasite or virus in culture; assay type: cell-based; settings: Acinetobacter baumannii, ATCC17978, read-out: MIC, A. baumannii ATCC 17978

| SMILES | IC50 [1] [µM] | IC50 [2] [µM] | MIC (A. baumannii ATCC 17978) [µg/mL] |
| --- | --- | --- | --- |
| O=C(O)c1c(F)ccc2c1OB(O)[C@@H](NC(=O)C(NC(=O)N1CCN(CCCNC(=O)[C@@H]3CCCN3)C(=O)C1=O)c1cc(F)c(O)c(O)c1Cl)C2 (stereo partly drawn) [Example 212, (3R)-3-(2-(2-chloro-5-fluoro-3,4-dihydroxyphenyl)-2-(2,3-dioxo-4-(3-((S)-pyrrolidine-2-carboxamido)propyl)piperazine-1-carboxamido)acetamido)-7-fluoro-2-hydroxy-3,4-dihydro-2H-benzo[e][1,2]oxaborinine-8-carboxylic acid] | > 250 | < 10 | < 1 |
| O=C(NCCCN1CCN(C(=O)NC(C(=O)N[C@H]2Cc3ccc(F)c(C(=O)O)c3OB2O)c2cc(F)c(O)c(O)c2Cl)C(=O)C1=O)Nc1cccnc1 (stereo partly drawn) [Example 213, (3R)-3-(2-(2-chloro-5-fluoro-3,4-dihydroxyphenyl)-2-(2,3-dioxo-4-(3-(3-(pyridin-3-yl)ureido)propyl)piperazine-1-carboxamido)acetamido)-7-fluoro-2-hydroxy-3,4-dihydro-2H-benzo[e][1,2]oxaborinine-8-carboxylic acid] | > 250 | < 10 | < 1 |
| O=C(NCCN1CCN(C(=O)NC(C(=O)N[C@H]2Cc3ccc(F)c(C(=O)O)c3OB2O)c2cc(F)c(O)c(O)c2Cl)C(=O)C1=O)c1ccc(O)cc1 (stereo partly drawn) [Example 214, (3R)-3-(2-(2-chloro-5-fluoro-3,4-dihydroxyphenyl)-2-(4-(2-(4-hydroxybenzamido)ethyl)-2,3-dioxopiperazine-1-carboxamido)acetamido)-7-fluoro-2-hydroxy-3,4-dihydro-2H-benzo[e][1,2]oxaborinine-8-carboxylic acid] | > 250 | < 10 | < 1 |
| O=C(NCCN1CCN(C(=O)NC(C(=O)N[C@H]2Cc3ccc(F)c(C(=O)O)c3OB2O)c2cc(F)c(O)c(O)c2Cl)C(=O)C1=O)c1cccc(O)c1 (stereo partly drawn) [Example 215, (3R)-3-(2-(2-chloro-5-fluoro-3,4-dihydroxyphenyl)-2-(4-(2-(3-hydroxybenzamido)ethyl)-2,3-dioxopiperazine-1-carboxamido)acetamido)-7-fluoro-2-hydroxy-3,4-dihydro-2H-benzo[e][1,2]oxaborinine-8-carboxylic acid] | > 250 | < 10 | < 1 |
| O=C(NCCN1CCN(C(=O)NC(C(=O)N[C@H]2Cc3ccc(F)c(C(=O)O)c3OB2O)c2cc(F)c(O)c(O)c2Cl)C(=O)C1=O)c1ccncc1 (stereo partly drawn) [Example 216, (3R)-3-(2-(2-chloro-5-fluoro-3,4-dihydroxyphenyl)-2-(4-(2-(isonicotinamido)ethyl)-2,3-dioxopiperazine-1-carboxamido)acetamido)-7-fluoro-2-hydroxy-3,4-dihydro-2H-benzo[e][1,2]oxaborinine-8-carboxylic acid] | > 250 | < 10 | < 1 |
| O=C(NCCN1CCN(C(=O)NC(C(=O)N[C@H]2Cc3ccc(F)c(C(=O)O)c3OB2O)c2cc(F)c(O)c(O)c2Cl)C(=O)C1=O)c1cccnc1 (stereo partly drawn) [Example 217, (3R)-3-(2-(2-chloro-5-fluoro-3,4-dihydroxyphenyl)-2-(4-(2-(nicotinamido)ethyl)-2,3-dioxopiperazine-1-carboxamido)acetamido)-7-fluoro-2-hydroxy-3,4-dihydro-2H-benzo[e][1,2]oxaborinine-8-carboxylic acid] | > 250 | < 10 | < 1 |
| O=C(NCCN1CCN(C(=O)NC(C(=O)N[C@H]2Cc3ccc(F)c(C(=O)O)c3OB2O)c2cc(F)c(O)c(O)c2Cl)C(=O)C1=O)c1nccs1 (stereo partly drawn) [Example 218, (3R)-3-(2-(2-chloro-5-fluoro-3,4-dihydroxyphenyl)-2-(2,3-dioxo-4-(2-(thiazole-2-carboxamido)ethyl)piperazine-1-carboxamido)acetamido)-7-fluoro-2-hydroxy-3,4-dihydro-2H-benzo[e][1,2]oxaborinine-8-carboxylic acid] | > 250 | < 10 | < 1 |
| O=C(NCCN1CCN(C(=O)NC(C(=O)N[C@H]2Cc3ccc(F)c(C(=O)O)c3OB2O)c2cc(F)c(O)c(O)c2Cl)C(=O)C1=O)Nc1ccc(O)cc1 (stereo partly drawn) [Example 219, (3R)-3-(2-(2-chloro-5-fluoro-3,4-dihydroxyphenyl)-2-(4-(2-(3-(4-hydroxyphenyl)ureido)ethyl)-2,3-dioxopiperazine-1-carboxamido)acetamido)-7-fluoro-2-hydroxy-3,4-dihydro-2H-benzo[e][1,2]oxaborinine-8-carboxylic acid] | > 250 | < 10 | < 1 |
| O=C(NCCN1CCN(C(=O)NC(C(=O)N[C@H]2Cc3ccc(F)c(C(=O)O)c3OB2O)c2cc(F)c(O)c(O)c2Cl)C(=O)C1=O)Nc1cccc(O)c1 (stereo partly drawn) [Example 220, (3R)-3-(2-(2-chloro-5-fluoro-3,4-dihydroxyphenyl)-2-(4-(2-(3-(3-hydroxyphenyl)ureido)ethyl)-2,3-dioxopiperazine-1-carboxamido)acetamido)-7-fluoro-2-hydroxy-3,4-dihydro-2H-benzo[e][1,2]oxaborinine-8-carboxylic acid] | > 250 | < 10 | < 1 |
| O=C(NCCN1CCN(C(=O)N[C@@H](C(=O)N[C@H]2Cc3ccc(F)c(C(=O)O)c3OB2O)c2cc(F)c(O)c(O)c2Cl)C(=O)C1=O)Nc1ccncc1 [Example 221, (R)-3-((R)-2-(2-chloro-5-fluoro-3,4-dihydroxyphenyl)-2-(2,3-dioxo-4-(2-(3-(pyridin-4-yl)ureido)ethyl)piperazine-1-carboxamido)acetamido)-7-fluoro-2-hydroxy-3,4-dihydro-2H-benzo[e][1,2]oxaborinine-8-carboxylic acid] | > 250 | < 10 | < 1 |
| O=C(NCCN1CCN(C(=O)N[C@@H](C(=O)N[C@H]2Cc3ccc(F)c(C(=O)O)c3OB2O)c2cc(F)c(O)c(O)c2Cl)C(=O)C1=O)Nc1cccnc1 [Example 222, (R)-3-((R)-2-(2-chloro-5-fluoro-3,4-dihydroxyphenyl)-2-(2,3-dioxo-4-(2-(3-(pyridin-3-yl)ureido)ethyl)piperazine-1-carboxamido)acetamido)-7-fluoro-2-hydroxy-3,4-dihydro-2H-benzo[e][1,2]oxaborinine-8-carboxylic acid] | > 250 | < 10 | < 1 |
| CN(CCN1CCN(C(=O)NC(C(=O)N[C@H]2Cc3ccc(F)c(C(=O)O)c3OB2O)c2cc(F)c(O)c(O)c2Cl)C(=O)C1=O)S(=O)(=O)c1ccc(C(N)=O)cc1 (stereo partly drawn) [Example 223, (3R)-3-(2-(4-(2-((4-carbamoyl-N-methylphenyl)sulfonamido)ethyl)-2,3-dioxopiperazine-1-carboxamido)-2-(2-chloro-5-fluoro-3,4-dihydroxyphenyl)acetamido)-7-fluoro-2-hydroxy-3,4-dihydro-2H-benzo[e][1,2]oxaborinine-8-carboxylic acid] | > 250 | < 10 | < 1 |
| CN(CCN1CCN(C(=O)NC(C(=O)N[C@H]2Cc3ccc(F)c(C(=O)O)c3OB2O)c2cc(F)c(O)c(O)c2Cl)C(=O)C1=O)S(=O)(=O)c1cccc(C(N)=O)c1 (stereo partly drawn) [Example 224, (3R)-3-(2-(4-(2-((3-carbamoyl-N-methylphenyl)sulfonamido)ethyl)-2,3-dioxopiperazine-1-carboxamido)-2-(2-chloro-5-fluoro-3,4-dihydroxyphenyl)acetamido)-7-fluoro-2-hydroxy-3,4-dihydro-2H-benzo[e][1,2]oxaborinine-8-carboxylic acid] | > 250 | < 10 | < 1 |

— US20240270762A1, “PENICILLIN-BINDING PROTEIN INHIBITORS” (priority 2021, published 2024)
